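Interpolation was linear, between the two tested concentrations surrounding the appropriate level; five concentrations were tested over 48 hours in 96-well plates. TGI denotes the concentration required for complete inhibition of growth.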
Assays:
Experiment in all cases: NCI-60 cell line screen, 48 h
786-0 renal = test system: 786-0 renal
A498 renal = test system: A498 renal
A549 NSCLC = test system: A549 NSCLC
ACHN renal = test system: ACHN renal
BT-549 breast = test system: BT-549 breast
CAKI-1 renal = test system: CAKI-1 renal
CCRF-CEM leukemia = test system: CCRF-CEM leukemia
COLO 205 colon = test system: COLO 205 colon
DU-145 prostate = test system: DU-145 prostate
EKVX NSCLC = test system: EKVX NSCLC
HCC-2998 colon = test system: HCC-2998 colon
HCT-116 colon = test system: HCT-116 colon
HCT-15 colon = test system: HCT-15 colon
HL-60(TB) leukemia = test system: HL-60(TB) leukemia
HOP-92 NSCLC = test system: HOP-92 NSCLC
HS 578T breast = test system: HS 578T breast
HT29 colon = test system: HT29 colon
IGROV1 ovarian = test system: IGROV1 ovarian
K-562 leukemia = test system: K-562 leukemia
KM12 colon = test system: KM12 colon
LOX IMVI melanoma = test system: LOX IMVI melanoma
M14 melanoma = test system: M14 melanoma
MALME-3M melanoma = test system: MALME-3M melanoma
MCF7 breast = test system: MCF7 breast
MDA-MB-231 breast = test system: MDA-MB-231 breast
MDA-N = test system: MDA-N
MOLT-4 leukemia = test system: MOLT-4 leukemia
NCI-H226 lung = test system: NCI-H226 lung
NCI-H23 lung = test system: NCI-H23 lung
NCI-H460 lung = test system: NCI-H460 lung
NCI/ADR-RES ovarian = test system: NCI/ADR-RES ovarian
OVCAR-3 ovarian = test system: OVCAR-3 ovarian
OVCAR-5 ovarian = test system: OVCAR-5 ovarian
OVCAR-8 ovarian = test system: OVCAR-8 ovarian
PC-3 prostate = test system: PC-3 prostate
RXF 393 renal = test system: RXF 393 renal
SF-268 CNS = test system: SF-268 CNS
SF-295 CNS = test system: SF-295 CNS
SF-539 CNS = test system: SF-539 CNS
SK-MEL-2 melanoma = test system: SK-MEL-2 melanoma
SK-MEL-28 melanoma = test system: SK-MEL-28 melanoma
SK-MEL-5 melanoma = test system: SK-MEL-5 melanoma
SK-OV-3 ovarian = test system: SK-OV-3 ovarian
SN12C renal = test system: SN12C renal
SNB-19 CNS = test system: SNB-19 CNS
SNB-75 CNS = test system: SNB-75 CNS
SW-620 colon = test system: SW-620 colon
T-47D breast = test system: T-47D breast
TK-10 renal = test system: TK-10 renal
U251 CNS = test system: U251 CNS
UACC-257 melanoma = test system: UACC-257 melanoma
UACC-62 melanoma = test system: UACC-62 melanoma
UO-31 renal = test system: UO-31 renal
HOP-62 NSCLC = test system: HOP-62 NSCLC
MDA-MB-435 = test system: MDA-MB-435
NCI-H522 lung = test system: NCI-H522 lung
OVCAR-4 ovarian = test system: OVCAR-4 ovarian
RPMI-8226 leukemia = test system: RPMI-8226 leukemia
SR leukemia = test system: SR leukemia

## CC1C2(C)OC(=N)C(C#N)(C(c3ccco3)O2)C1(C#N)C#N (stereo unspecified)
786-0 renal
  TGI: 49.5 µM
A498 renal
  TGI: > 100 µM
A549 NSCLC
  TGI: > 100 µM
ACHN renal
  TGI: > 100 µM
BT-549 breast
  TGI: > 100 µM
CAKI-1 renal
  TGI: 27.4 µM
CCRF-CEM leukemia
  TGI: 84.4 µM
COLO 205 colon
  TGI: 27.7 µM
DU-145 prostate
  TGI: > 100 µM
EKVX NSCLC
  TGI: > 100 µM
HCC-2998 colon
  TGI: 55.5 µM
HCT-116 colon
  TGI: 67.1 µM
HCT-15 colon
  TGI: 25 µM
HL-60(TB) leukemia
  TGI: 48.3 µM
HOP-92 NSCLC
  TGI: 47.3 µM
HS 578T breast
  TGI: 80.8 µM
HT29 colon
  TGI: > 100 µM
IGROV1 ovarian
  TGI: > 100 µM
K-562 leukemia
  TGI: > 100 µM
KM12 colon
  TGI: > 100 µM
LOX IMVI melanoma
  TGI: 40.5 µM
M14 melanoma
  TGI: 35.9 µM
MALME-3M melanoma
  TGI: 88.7 µM
MCF7 breast
  TGI: 51.4 µM
MDA-MB-231 breast
  TGI: 39.5 µM
MDA-N
  TGI: 43 µM
MOLT-4 leukemia
  TGI: > 100 µM
NCI-H226 lung
  TGI: > 100 µM
NCI-H23 lung
  TGI: 93.6 µM
NCI-H460 lung
  TGI: 44.6 µM
NCI/ADR-RES ovarian
  TGI: > 100 µM
OVCAR-3 ovarian
  TGI: 47.9 µM
OVCAR-5 ovarian
  TGI: 83.6 µM
OVCAR-8 ovarian
  TGI: > 100 µM
PC-3 prostate
  TGI: > 100 µM
RXF 393 renal
  TGI: 51.4 µM
SF-268 CNS
  TGI: > 100 µM
SF-295 CNS
  TGI: > 100 µM
SF-539 CNS
  TGI: 35.9 µM
SK-MEL-2 melanoma
  TGI: 75.9 µM
SK-MEL-28 melanoma
  TGI: 46.2 µM
SK-MEL-5 melanoma
  TGI: 28.1 µM
SK-OV-3 ovarian
  TGI: > 100 µM
SN12C renal
  TGI: 30.4 µM
SNB-19 CNS
  TGI: > 100 µM
SNB-75 CNS
  TGI: > 100 µM
SW-620 colon
  TGI: 40.4 µM
T-47D breast
  TGI: 45.9 µM
TK-10 renal
  TGI: > 100 µM
U251 CNS
  TGI: 51.5 µM
UACC-257 melanoma
  TGI: 51.9 µM
UACC-62 melanoma
  TGI: 36.8 µM
UO-31 renal
  TGI: > 100 µM

## CCCN1CN(c2ccccc2)C2(CCN(CCCC(=O)c3ccc(F)cc3)CC2)C1=O
786-0 renal
  TGI: 17.3 µM
A498 renal
  TGI: 5.67 µM
A549 NSCLC
  TGI: 29.8 µM
ACHN renal
  TGI: 12.9 µM
CAKI-1 renal
  TGI: 41.1 µM
CCRF-CEM leukemia
  TGI: 5.16 µM
COLO 205 colon
  TGI: 0.348 µM
DU-145 prostate
  TGI: 11.1 µM
EKVX NSCLC
  TGI: 54.2 µM
HCC-2998 colon
  TGI: 20.8 µM
HCT-116 colon
  TGI: 8.75 µM
HCT-15 colon
  TGI: 16.9 µM
HL-60(TB) leukemia
  TGI: 40.2 µM
HOP-62 NSCLC
  TGI: 8.66 µM
HOP-92 NSCLC
  TGI: 8.98 µM
HS 578T breast
  TGI: 34.1 µM
HT29 colon
  TGI: 7.02 µM
IGROV1 ovarian
  TGI: 14.8 µM
K-562 leukemia
  TGI: > 58.4 µM
KM12 colon
  TGI: 31 µM
LOX IMVI melanoma
  TGI: 17.1 µM
M14 melanoma
  TGI: 25.1 µM
MALME-3M melanoma
  TGI: 30.1 µM
MCF7 breast
  TGI: 11.9 µM
MDA-MB-231 breast
  TGI: 18.1 µM
MDA-MB-435
  TGI: 23.5 µM
MDA-N
  TGI: 23 µM
MOLT-4 leukemia
  TGI: 15.5 µM
NCI-H226 lung
  TGI: 22.3 µM
NCI-H23 lung
  TGI: 17.3 µM
NCI-H460 lung
  TGI: 26.9 µM
NCI-H522 lung
  TGI: 43.6 µM
NCI/ADR-RES ovarian
  TGI: 17.6 µM
OVCAR-3 ovarian
  TGI: 30.3 µM
OVCAR-4 ovarian
  TGI: 20.2 µM
OVCAR-5 ovarian
  TGI: 20.2 µM
OVCAR-8 ovarian
  TGI: 32.6 µM
PC-3 prostate
  TGI: 27.6 µM
RPMI-8226 leukemia
  TGI: 42.2 µM
RXF 393 renal
  TGI: 37 µM
SF-268 CNS
  TGI: 23.8 µM
SF-295 CNS
  TGI: 24.8 µM
SF-539 CNS
  TGI: 15.5 µM
SK-MEL-2 melanoma
  TGI: 25 µM
SK-MEL-28 melanoma
  TGI: 34.3 µM
SK-MEL-5 melanoma
  TGI: 4.84 µM
SK-OV-3 ovarian
  TGI: 43.1 µM
SN12C renal
  TGI: 15.5 µM
SNB-19 CNS
  TGI: 34.7 µM
SNB-75 CNS
  TGI: 47.5 µM
SR leukemia
  TGI: 41.4 µM
SW-620 colon
  TGI: 20.4 µM
T-47D breast
  TGI: 35 µM
TK-10 renal
  TGI: 22.4 µM
U251 CNS
  TGI: 30.7 µM
UACC-257 melanoma
  TGI: 6.09 µM
UACC-62 melanoma
  TGI: 31.3 µM
UO-31 renal
  TGI: 30.2 µM

Reference: PubChem BioAssay (NCI)
